Measurements from US4894377A, “β-carbolines and their use as medicinal agents” (Schering Aktiengesellschaft, priority 1983, dated 1990).
Converted amounts (≈) assume the structure as drawn.

Legend:
[1] = molecular target: benzodiazepine receptors; test: displacement of specific binding of 3H flunitrazepam in vitro (rat cerebral membrane suspension); conditions: 50% displacement of specific binding of 3H flunitrazepam (1.0 nM, 0° C.), rat cerebrum
[2] = test system: convulsions induced by pentylenetetrazole (Pentazol); test: protection from convulsions and death induced by pentylenetetrazole (Pentazol); format: in vivo; conditions: Mus musculus, ip; protects 50% of mice from convulsions and death; test compound intraperitoneal, 15-30 minutes before Pentazol
Protocol: (§1) The compounds of this invention show, in a pharmacological test, anxiolytic, antiagressive, and anticonvulsive activities. Two testing systems were employed to examine the anticonvulsive effect. The elimination of convulsions induced, on the one hand, by pentylenetetrazole (Pentazol) and, on the other hand, by 6,7-dimethoxy-4-ethyl-β-carboline-3-carboxylic acid methyl ester (DMCM) was examined. Pentazol and DMCM, respectively, are administered 15-30 minutes after intraperitoneal administration of the test compound in an amount of 15 mg/kg as an aqueous solution (pH 7) intraperitoneally and, respectively, in an amount of 150 mg/kg as a hydrochloric acid solution (pH 2-3) subcutaneously. These quantities induce clonic and tonic convulsions leading to death in untreated animals.
(§2) The ED50 values indicated in the table were determined according to the method by Litchfield and Wilcoxon (1949) as the amount of antagonistically active compound required to protect 50% of the animals from convulsions and death.

[3] = test system: convulsions induced by 6,7-dimethoxy-4-ethyl-β-carboline-3-carboxylic acid methyl ester (DMCM); test: protection from convulsions and death induced by DMCM; format: in vivo; conditions: Mus musculus, ip; protects 50% of mice from convulsions and death; test compound intraperitoneal, 15-30 minutes before DMCM
Protocol: as §1, §2

[4] = test system: clonic convulsions at 111 dB; test: audiogenic seizure test; format: in vivo; conditions: Mus musculus, ip, 0.5 h; dose at which 40% of mice show no convulsions at 111 dB (14 kHz); DBA/2 mice, intraperitoneal, 30 minutes prior
Protocol: The compounds of this invention also show a convulsion-relieving and/or convulsion-eliminating effect in the audiogenic seizure test. For this purpose, 18-21 day old male mice weighing 8-12 g (DBA/2 mice) receive intraperitoneally the compound to be tested as an ultrasound microsuspension in water/"Cremofor" EL (95:5) 30 minutes prior to testing. The animals are then exposed, in a soundproof wooden box (25×22×15 cm), to a sinusoidal sound of 14 kHz at 111 dB. The sound is generated immediately after transferring the animal into the box. Occurrence of clonic convulsions is recorded for 30 seconds. The ED50 value in the table indicates the dose at which 40% of the mice show no convulsions at 111 dB (80% of the control mice show convulsions at 111 dB).

CCOC(=O)c1ncc2[nH]c3cccc(OCc4ccccc4)c3c2c1COC
IC50 (in vitro) [1]: 2 ng/mL (≈ 5.12 nM) | ED50 [2]: 15 mg/kg | ED50 [3]: 0.6 mg/kg | ED50 [4]: 0.5 mg/kg

CCOC(=O)c1ncc2[nH]c3cccc(OCCc4ccccc4)c3c2c1COC
IC50 (in vitro) [1]: 0.8 ng/mL (≈ 1.98 nM) | ED50 [2]: 40 mg/kg

CCOC(=O)c1ncc2[nH]c3cccc(OCCCc4ccccc4)c3c2c1COC
IC50 (in vitro) [1]: 1.9 ng/mL (≈ 4.54 nM) | ED50 [2]: 30 mg/kg | ED50 [3]: 5.5 mg/kg

CCOC(=O)c1ncc2[nH]c3cccc(OCc4ccc(Cl)c(Cl)c4)c3c2c1COC [3,4-dichloro, 5-(3,4-dichlorobenzyloxy)-4-methoxymethyl-β-carboline-3-carboxylic acid ethyl ester]
IC50 (in vitro) [1]: 2.1 ng/mL (≈ 4.57 nM) | ED50 [2]: 6 mg/kg | ED50 [3]: 2.2 mg/kg

CCOC(=O)c1ncc2[nH]c3cccc(OCc4ccc(C)c(C)c4)c3c2c1COC [3,4-dimethyl, 5-(3,4-dimethylbenzyloxy)-4-methoxymethyl-β-carboline-3-carboxylic acid ethyl ester]
IC50 (in vitro) [1]: 1.7 ng/mL (≈ 4.06 nM) | ED50 [2]: 30 mg/kg

CCOC(=O)c1ncc2[nH]c3cccc(OCc4cccc(C(F)(F)F)c4)c3c2c1COC [3-trifluoromethyl, 5-(3-trifluoromethylbenzyloxy)-4-methoxymethyl-β-carboline-3-carboxylic acid ethyl ester]
IC50 (in vitro) [1]: 1.4 ng/mL (≈ 3.05 nM) | ED50 [2]: 12 mg/kg

CCOC(=O)c1ncc2[nH]c3cccc(OCc4ccccc4F)c3c2c1COC [Substituent 2-fluoro, 5-(2-fluorobenzyloxy)-4-methoxymethyl-β-carboline-3-carboxylic acid ethyl ester]
IC50 (in vitro) [1]: 0.3 ng/mL (≈ 0.735 nM) | ED50 [2]: 13 mg/kg | ED50 [3]: 0.4 mg/kg | ED50 [4]: 0.05 mg/kg

CCOC(=O)c1ncc2[nH]c3cccc(OCc4cccc(Br)c4)c3c2c1COC [Substituent 3-bromo, 5-(3-bromobenzyloxy)-4-methoxymethyl-β-carboline-3-carboxylic acid ethyl ester]
IC50 (in vitro) [1]: 0.8 ng/mL (≈ 1.7 nM) | ED50 [2]: 6 mg/kg

CCOC(=O)c1ncc2[nH]c3cccc(OCc4cccc(Cl)c4)c3c2c1COC [Substituent 3-chloro, 5-(3-chlorobenzyloxy)-4-methoxymethyl-β-carboline-3-carboxylic acid ethyl ester]
IC50 (in vitro) [1]: 1.4 ng/mL (≈ 3.3 nM) | ED50 [2]: 0.9 mg/kg | ED50 [3]: 0.3 mg/kg | ED50 [4]: 0.08 mg/kg

CCOC(=O)c1ncc2[nH]c3cccc(OCc4cccc(F)c4)c3c2c1COC [Substituent 3-fluoro, 5-(3-fluorobenzyloxy)-4-methoxymethyl-β-carboline-3-carboxylic acid ethyl ester]
IC50 (in vitro) [1]: 0.3 ng/mL (≈ 0.735 nM) | ED50 [2]: 12 mg/kg | ED50 [3]: 0.3 mg/kg | ED50 [4]: 0.05 mg/kg

CCOC(=O)c1ncc2[nH]c3cccc(OCc4cccc(OC)c4)c3c2c1COC [Substituent 3-methoxy, 5-(3-methoxybenzyloxy)-4-methoxymethyl-β-carboline-3-carboxylic acid ethyl ester]
IC50 (in vitro) [1]: 0.5 ng/mL (≈ 1.19 nM) | ED50 [2]: > 100 mg/kg

CCOC(=O)c1ncc2[nH]c3cccc(OCc4ccc(Cl)cc4)c3c2c1COC [Substituent 4-chloro, 5-(4-chlorobenzyloxy)-4-methoxymethyl-β-carboline-3-carboxylic acid ethyl ester]
IC50 (in vitro) [1]: 0.9 ng/mL (≈ 2.12 nM) | ED50 [2]: > 30 mg/kg

CCOC(=O)c1ncc2[nH]c3cccc(OCc4ccc(F)cc4)c3c2c1COC [Substituent 4-fluoro, 5-(4-fluorobenzyloxy)-4-methoxymethyl-β-carboline-3-carboxylic acid ethyl ester]
IC50 (in vitro) [1]: 0.4 ng/mL (≈ 0.979 nM) | ED50 [2]: 30 mg/kg | ED50 [3]: 0.1 mg/kg | ED50 [4]: 0.2 mg/kg

CCOC(=O)c1ncc2[nH]c3cccc(OCc4ccc(C)cc4)c3c2c1COC [Substituent 4-methyl, 5-(4-methylbenzyloxy)-4-methoxymethyl-β-carboline-3-carboxylic acid ethyl ester]
IC50 (in vitro) [1]: 0.9 ng/mL (≈ 2.23 nM) | ED50 [2]: 30 mg/kg

CCOC(=O)c1ncc2[nH]c3cccc(OCc4ccc([N+](=O)[O-])cc4)c3c2c1COC [Substituent 4-nitro, 5-(4-nitrobenzyloxy)-4-methoxymethyl-β-carboline-3-carboxylic acid ethyl ester]
IC50 (in vitro) [1]: 0.2 ng/mL (≈ 0.459 nM) | ED50 [2]: > 50 mg/kg

CCOC(=O)c1ncc2[nH]c3cccc(OC(C)c4cccc(Cl)c4)c3c2c1COC (stereo not drawn) [α-methyl, 3-chloro, 5-[1-(3-chlorophenyl)ethoxy]-4-methoxymethyl-β-carboline-3-carboxylic acid ethyl ester]
IC50 (in vitro) [1]: 4.3 ng/mL (≈ 9.8 nM) | ED50 [2]: 2 mg/kg

CCOC(=O)c1ncc2[nH]c3cccc(OC(C)c4ccccc4)c3c2c1COC (stereo not drawn) [α-methyl]
IC50 (in vitro) [1]: 1.1 ng/mL (≈ 2.72 nM) | ED50 [2]: 3 mg/kg | ED50 [3]: 0.1 mg/kg | ED50 [4]: 0.01 mg/kg
